Measured values from PMC4624405 (Chemistry & biology, 2015).
Where two headings read alike, the source gives them in different places.

What was measured:
[1] = biological target: T1, sterol C24-methyltransferase (TbSMT) (Trypanosoma brucei, UniProt Q4FKJ2); assay: recombinant enzyme activity assay, Lineweaver-Burk inhibition; type: biochemical
T1 sequence (Q4FKJ2 1-359): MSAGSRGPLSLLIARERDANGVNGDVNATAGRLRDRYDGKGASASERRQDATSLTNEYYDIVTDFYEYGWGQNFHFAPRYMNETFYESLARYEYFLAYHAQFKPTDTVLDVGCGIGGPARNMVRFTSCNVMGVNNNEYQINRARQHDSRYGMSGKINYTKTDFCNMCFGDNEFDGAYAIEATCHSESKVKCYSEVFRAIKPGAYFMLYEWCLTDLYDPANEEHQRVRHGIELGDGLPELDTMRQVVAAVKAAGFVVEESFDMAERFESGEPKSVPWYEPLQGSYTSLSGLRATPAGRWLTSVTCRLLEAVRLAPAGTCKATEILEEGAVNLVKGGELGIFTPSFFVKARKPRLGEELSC

[2] = biological target: T1, sterol C24-methyltransferase (TbSMT); type: biochemical

Row | Compound | Ki [1] | Ki [2]
1 | CC(=CCC[C@@H](C)[C@H]1CC[C@@]2(C)C3=C(CC[C@]12C)[C@@]1(C)CC[C@H](O)C(C)(C)[C@@H]1CC3)CF [26FL, 26-fluorolanosterol] | 85 µM | 
2 | CC(=CCC[C@@H](C)[C@H]1CC[C@H]2C3=CC=C4C[C@@H](O)CC[C@]4(C)[C@H]3CC[C@]12C)CF [26FCT, 26-fluorocholesta-5,7,24-trienol] |  | 75 µM
